Where no end group is shown, it is not given here.
System: output of cAMP produced by 5×10^-9 M hPTH (1-34) in cultured mouse osteoblast MC3T3-E1
Assay: Determination of PTH antagonism: inhibition of cAMP output induced by hPTH (1-34) in cultured mouse osteoblast MC3T3-E1
Assay type: cell-based
Experimental: PTH antagonism of the PTHrP derivatives (I) of the present invention was determined on the basis of the output of cAMP, using cultured mouse osteoblast MC3T3-E1.
To a multiwell-culture plate of 12-well were inoculated 1×10^5 cells/well of the cultured cells, and the plate was incubated at 37° C. under 95% air-5% CO2 atmosphere for 3 days after addition of α-modified MEM containing 10% semi-fetal bovine serum as a medium. Then, the medium was exchanged with α-modified MEM containing 1% bovine serum albumin and the cultured cells were incubated for 6 hours. The medium was replaced by α-modified MEM containing various concentrations of the compound of the present invention, 5×10^-9 M hPTH (1-34), 1% bovine serum albumin and 1 mM isobutylmethylxanthin, and the mixture was incubated for 1 hour. The medium was separated from the cells, and the medium was used as a sample for assaying cAMP. The cells were shaken with 90% n-propyl alcohol to extract cAMP according to Yamaguchi et al., J. Biol. Chem., 262, 7711-7718 (1987) for preparing another sample.
Assay of cAMP was performed using a commercially available cAMP-radioimmunoassay kit. […] Compound numbers in the tables correspond to those in Table 2.

[1] = Table 3, 50% inhibition of cAMP output by 5×10^-9 M hPTH (1-34), ratio to control [Tyr34]-hPTH (3-34)-NH2 = 1
[2] = Table 4, 50% inhibition of cAMP output by 5×10^-9 M hPTH (1-34), ratio to control Compound No. 15 = 1

Row | Compound | IC50 Ratio [1] | IC50 Ratio [2] | further results
1 | CC[C@H](C)[C@H](NC(=O)[C@H](CC(C)C)NC(=O)[C@H](Cc1c[nH]cn1)NC(=O)[C@H](Cc1c[nH]cn1)NC(=O)[C@H](CC(C)C)NC(=O)[C@H](Cc1ccccc1)NC(=O)[C@H](Cc1ccccc1)NC(=O)[C@H](CCCNC(=N)N)NC(=O)[C@H](CCCNC(=N)N)NC(=O)[C@H](CCCNC(=N)N)NC(=O)[C@H](CC(C)C)NC(=O)[C@H](CC(=O)O)NC(=O)[C@H](CCC(N)=O)NC(=O)[C@@H](NC(=O)[C@H](CO)NC(=O)[C@H](CCCCN)NC(=O)CNC(=O)[C@H](CC(C)C)NC(=O)[C@H](CCC(N)=O)NC(=O)[C@H](Cc1c[nH]cn1)NC(=O)[C@H](CCSC)NC(=O)[C@H](CC(C)C)NC(=O)[C@H](CCC(N)=O)NC(=O)[C@@H](NC(=O)[C@H](CCC(=O)O)NC(=O)[C@@H](N)CO)[C@@H](C)CC)[C@@H](C)CC)C(=O)N[C@@H](C)C(=O)N[C@@H](CCC(=O)O)C(=O)N[C@H](C(=O)N[C@@H](Cc1c[nH]cn1)C(=O)N[C@H](C(=O)N[C@@H](C)C(N)=O)[C@@H](C)O)[C@@H](C)CC [Compound No. 2] | 0.003 | – | –
2 | CC[C@H](C)[C@H](N)C(=O)N[C@@H](CCC(N)=O)C(=O)N[C@@H](CC(C)C)C(=O)N[C@@H](CCSC)C(=O)N[C@@H](Cc1c[nH]cn1)C(=O)N[C@@H](C)C(=O)N[C@@H](CC(C)C)C(=O)NCC(=O)N[C@@H](CCCCN)C(=O)N[C@@H](CO)C(=O)N[C@H](C(=O)N[C@@H](CCC(N)=O)C(=O)N[C@@H](CC(=O)O)C(=O)N[C@@H](CC(C)C)C(=O)N[C@@H](CCCNC(=N)N)C(=O)N[C@@H](CCCNC(=N)N)C(=O)N[C@@H](CCCNC(=N)N)C(=O)N[C@@H](Cc1ccccc1)C(=O)N[C@@H](Cc1ccccc1)C(=O)N[C@@H](CC(C)C)C(=O)N[C@@H](Cc1c[nH]cn1)C(=O)N[C@@H](Cc1c[nH]cn1)C(=O)N[C@@H](CC(C)C)C(=O)N[C@H](C(=O)N[C@@H](C)C(=O)N[C@@H](CCC(=O)O)C(=O)N[C@H](C(=O)N[C@@H](Cc1c[nH]cn1)C(=O)N[C@H](C(=O)N[C@@H](C)C(N)=O)[C@@H](C)O)[C@@H](C)CC)[C@@H](C)CC)[C@@H](C)CC [Compound No. 18] | – | 1.97 | –
3 | CCCCCCCCCCCCCC(=O)N[C@@H](CCC(N)=O)C(=O)N[C@@H](CC(C)C)C(=O)N[C@@H](CCSC)C(=O)N[C@@H](Cc1c[nH]cn1)C(=O)N[C@@H](CC(=O)O)C(=O)N[C@@H](CCCCN)C(=O)NCC(=O)N[C@@H](CCCCN)C(=O)N[C@@H](CO)C(=O)N[C@H](C(=O)N[C@@H](CCC(N)=O)C(=O)N[C@@H](CC(=O)O)C(=O)N[C@@H](CC(C)C)C(=O)N[C@@H](CCCNC(=N)N)C(=O)N[C@@H](CCCNC(=N)N)C(=O)N[C@@H](CCCNC(=N)N)C(=O)N[C@@H](Cc1ccccc1)C(=O)N[C@@H](Cc1ccccc1)C(=O)N[C@@H](CC(C)C)C(=O)N[C@@H](Cc1c[nH]cn1)C(=O)N[C@@H](Cc1c[nH]cn1)C(=O)N[C@@H](CC(C)C)C(=O)N[C@H](C(=O)N[C@@H](C)C(=O)N[C@@H](CCC(=O)O)C(=O)N[C@H](C(=O)N[C@@H](Cc1c[nH]cn1)C(=O)N[C@H](C(=O)N[C@@H](C)C(N)=O)[C@@H](C)O)[C@@H](C)CC)[C@@H](C)CC)[C@@H](C)CC [Compound No. 10] | – | 2.24 | –
4 | CC[C@H](C)[C@H](N)C(=O)N[C@@H](CCC(N)=O)C(=O)N[C@@H](CC(C)C)C(=O)N[C@@H](CCSC)C(=O)N[C@@H](Cc1c[nH]cn1)C(=O)N[C@@H](C)C(=O)N[C@@H](CCCCN)C(=O)NCC(=O)N[C@@H](CCCCN)C(=O)N[C@@H](CO)C(=O)N[C@H](C(=O)N[C@@H](CCC(N)=O)C(=O)N[C@@H](CC(=O)O)C(=O)N[C@@H](CC(C)C)C(=O)N[C@@H](CCCNC(=N)N)C(=O)N[C@@H](CCCNC(=N)N)C(=O)N[C@@H](CCCNC(=N)N)C(=O)N[C@@H](Cc1ccccc1)C(=O)N[C@@H](Cc1ccccc1)C(=O)N[C@@H](CC(C)C)C(=O)N[C@@H](Cc1c[nH]cn1)C(=O)N[C@@H](Cc1c[nH]cn1)C(=O)N[C@@H](CC(C)C)C(=O)N[C@H](C(=O)N[C@@H](C)C(=O)N[C@@H](CCC(=O)O)C(=O)N[C@H](C(=O)N[C@@H](Cc1c[nH]cn1)C(=O)N[C@H](C(=O)N[C@@H](C)C(N)=O)[C@@H](C)O)[C@@H](C)CC)[C@@H](C)CC)[C@@H](C)CC [Compound No. 17] | – | 1.17 | –
5 | IQLMHDKGKSIQDLRRRFFLRHLIAEIHTA-NH2 [Compound No. 19] | – | 0.934 | –
6 | IQLMHDKGKSIQDLRRRFFLHKLIAEIHTA-NH2 [Compound No. 20] | – | 1.01 | –
7 | CC[C@H](C)[C@H](NC(=O)[C@H](CC(C)C)NC(=O)[C@H](Cc1c[nH]cn1)NC(=O)[C@H](Cc1c[nH]cn1)NC(=O)[C@H](CC(C)C)NC(=O)[C@H](Cc1ccccc1)NC(=O)[C@H](Cc1ccccc1)NC(=O)[C@H](CCCNC(=N)N)NC(=O)[C@H](CCCNC(=N)N)NC(=O)[C@H](CCCNC(=N)N)NC(=O)[C@H](CC(C)C)NC(=O)[C@H](CC(=O)O)NC(=O)[C@H](CCC(N)=O)NC(=O)[C@@H](NC(=O)[C@H](CO)NC(=O)[C@H](CCCCN)NC(=O)CNC(=O)[C@H](CCCCN)NC(=O)[C@H](CC(=O)O)NC(=O)[C@H](Cc1c[nH]cn1)NC(=O)[C@H](CCSC)NC(=O)[C@H](CC(C)C)NC(=O)[C@H](CCC(N)=O)NC(=O)[C@@H](N)Cc1ccccc1)[C@@H](C)CC)C(=O)N[C@@H](C)C(=O)N[C@@H](CCC(=O)O)C(=O)N[C@H](C(=O)N[C@@H](Cc1c[nH]cn1)C(=O)N[C@H](C(=O)N[C@@H](C)C(N)=O)[C@@H](C)O)[C@@H](C)CC [Compound No. 8] | 0.026 | – | –
8 | CC[C@H](C)[C@H](NC(=O)[C@H](CC(C)C)NC(=O)[C@H](Cc1c[nH]cn1)NC(=O)[C@H](Cc1c[nH]cn1)NC(=O)[C@H](CC(C)C)NC(=O)[C@H](Cc1ccccc1)NC(=O)[C@H](Cc1ccccc1)NC(=O)[C@H](CCCNC(=N)N)NC(=O)[C@H](CCCNC(=N)N)NC(=O)[C@H](CCCNC(=N)N)NC(=O)[C@H](CC(C)C)NC(=O)[C@H](CC(=O)O)NC(=O)[C@H](CCC(N)=O)NC(=O)[C@@H](NC(=O)[C@H](CO)NC(=O)[C@H](CCCCN)NC(=O)CNC(=O)[C@H](CC(C)C)NC(=O)[C@H](C)NC(=O)[C@H](Cc1c[nH]cn1)NC(=O)[C@H](CCSC)NC(=O)[C@H](CC(C)C)NC(=O)[C@H](CCC(N)=O)NC(=O)[C@@H](NC(=O)[C@H](CCC(=O)O)NC(=O)[C@@H](N)CO)[C@@H](C)CC)[C@@H](C)CC)C(=O)N[C@@H](C)C(=O)N[C@@H](CCC(=O)O)C(=O)N[C@H](C(=O)N[C@@H](Cc1c[nH]cn1)C(=O)N[C@H](C(=O)N[C@@H](C)C(N)=O)[C@@H](C)O)[C@@H](C)CC [Compound No. 1] | 0.003 | – | concentration for 50% inhibition as fraction of that of [Tyr^34 ]-hPTH (3-34)-NH2 (relative to [Tyr34]-hPTH (3-34)-NH2): below 1/300; concentration for 50% inhibition as fraction of that of hPTHrP (3-34)-NH2 (relative to hPTHrP (3-34)-NH2): about 1/29
9 | CCCCCCCCCCCCCC(=O)N[C@H](C(=O)N[C@@H](CCC(N)=O)C(=O)N[C@@H](CC(C)C)C(=O)N[C@@H](CCSC)C(=O)N[C@@H](Cc1c[nH]cn1)C(=O)N[C@@H](CC(=O)O)C(=O)N[C@@H](CCCCN)C(=O)NCC(=O)N[C@@H](CCCCN)C(=O)N[C@@H](CO)C(=O)N[C@H](C(=O)N[C@@H](CCC(N)=O)C(=O)N[C@@H](CC(=O)O)C(=O)N[C@@H](CC(C)C)C(=O)N[C@@H](CCCNC(=N)N)C(=O)N[C@@H](CCCNC(=N)N)C(=O)N[C@@H](CCCNC(=N)N)C(=O)N[C@@H](Cc1ccccc1)C(=O)N[C@@H](Cc1ccccc1)C(=O)N[C@@H](CC(C)C)C(=O)N[C@@H](Cc1c[nH]cn1)C(=O)N[C@@H](Cc1c[nH]cn1)C(=O)N[C@@H](CC(C)C)C(=O)N[C@H](C(=O)N[C@@H](C)C(=O)N[C@@H](CCC(=O)O)C(=O)N[C@H](C(=O)N[C@@H](Cc1c[nH]cn1)C(=O)N[C@H](C(=O)N[C@@H](C)C(N)=O)[C@@H](C)O)[C@@H](C)CC)[C@@H](C)CC)[C@@H](C)CC)[C@@H](C)CC [Compound No. 22] | – | 0.765 | –
10 | CC[C@H](C)[C@H](NC(C)=O)C(=O)N[C@@H](CCC(N)=O)C(=O)N[C@@H](CC(C)C)C(=O)N[C@@H](CCSC)C(=O)N[C@@H](Cc1c[nH]cn1)C(=O)N[C@@H](CC(=O)O)C(=O)N[C@@H](CCCCN)C(=O)NCC(=O)N[C@@H](CCCCN)C(=O)N[C@@H](CO)C(=O)N[C@H](C(=O)N[C@@H](CCC(N)=O)C(=O)N[C@@H](CC(=O)O)C(=O)N[C@@H](CC(C)C)C(=O)N[C@@H](CCCNC(=N)N)C(=O)N[C@@H](CCCNC(=N)N)C(=O)N[C@@H](CCCNC(=N)N)C(=O)N[C@@H](Cc1ccccc1)C(=O)N[C@@H](Cc1ccccc1)C(=O)N[C@@H](CC(C)C)C(=O)N[C@@H](Cc1c[nH]cn1)C(=O)N[C@@H](Cc1c[nH]cn1)C(=O)N[C@@H](CC(C)C)C(=O)N[C@H](C(=O)N[C@@H](C)C(=O)N[C@@H](CCC(=O)O)C(=O)N[C@H](C(=O)N[C@@H](Cc1c[nH]cn1)C(=O)N[C@H](C(=O)N[C@@H](C)C(N)=O)[C@@H](C)O)[C@@H](C)CC)[C@@H](C)CC)[C@@H](C)CC [Compound No. 21] | – | 0.934 | –
11 | [Tyr^34 ]-hPTH (3-34)-NH2 [(Tyr34)--hPTH(3-34)--NH2, reference compound] | 1 | – | –

From US5446130A, “Parathyroid hormone antagonists” (Mitsubishi Kasei Corporation, priority 1990, dated 1995)
